Experimental findings from patent US9051333B2, “6,7-dihydroimidazo [2,1-b] [1,3]oxazine bactericides” (OTSUKA PHARMACEUTICAL CO., LTD., priority 2011, dated 2015) are described below.

The structures appear in SMILES notation. In brackets after ≈: the same amount, converted by molar mass. Bounds are passed on as bounds.

The subject of one assay is Mycobacterium tuberculosis (M. tuberculosis H37Rv). The assay can be described thus: Antimicrobial Assay (Agar Plate Dilution Method), M. tuberculosis H37Rv. The assay is classed as cell-based. The conditions noted are these: 336 h, 7H11 agar medium, cultured at 37° C. for 14 days, read-out: minimum inhibitory concentration.
With `O=[N+]([O-])c1cn2c(n1)O[C@@H](COc1ccc(N3CCC(Cc4ccc(Oc5ccc(OC(F)(F)F)cc5)cc4)CC3)cc1)CC2` [Example 228, (R)-2-nitro-7-(4-{4-[4-(4-trifluoromethoxyphenoxy)benzyl]piperidin-1-yl}phenoxymethyl)-6,7-dihydro-5H-imidazo[2,1-b][1,3]oxazine], the MIC is at most 0.4 ng/mL.

The subject of a further assay is Mycobacterium tuberculosis (M. tuberculosis kurono). The assay can be described thus: Antimicrobial Assay (Agar Plate Dilution Method), M. tuberculosis kurono. Particulars: 336 h, M. tuberculosis kurono, 7H11 agar medium, cultured at 37° C. for 14 days, read-out: Minimum Inhibitory Concentration. The assay is classed as cell-based.
With `O=[N+]([O-])c1cn2c(n1)O[C@@H](COc1ccc(N3CCC(Cc4ccc(Oc5ccc(OC(F)(F)F)cc5)cc4)CC3)cc1)CC2` [Example 228, (R)-2-nitro-7-(4-{4-[4-(4-trifluoromethoxyphenoxy)benzyl]piperidin-1-yl}phenoxymethyl)-6,7-dihydro-5H-imidazo[2,1-b][1,3]oxazine], the MIC is 0.8 ng/mL (≈ 1.28 nM). Still for that read-out and setting: to `O=[N+]([O-])c1cn2c(n1)OC(COc1ccc(N3CCC(Oc4ccc(OC(F)(F)F)cc4)CC3)c(F)c1)CC2` (centres unmarked) [Example 147, 7-{3-fluoro-4-[4-(4-trifluoromethoxyphenoxy)piperidin-1-yl]phenoxymethyl}-2-nitro-6,7-dihydro-5H-imidazo[2,1-b][1,3]oxazine] belongs 50 ng/mL (≈ 90.5 nM); to `CC(C)(c1ccc(OCc2ccc(C(F)(F)F)cc2)cc1)N1CCN(c2ccc(OC[C@H]3CCn4cc([N+](=O)[O-])nc4O3)cc2)CC1` [Example 490, (R)-7-[4-(4-{1-methyl-1-[4-(4-trifluoromethylbenzyloxy)phenyl]ethyl}piperazin-1-yl)phenoxymethyl]-2-nitro-6,7-dihydro-5H-imidazo[2,1-b][1,3]oxazine], 0.8 ng/mL (≈ 1.23 nM).

Regarding `O=[N+]([O-])c1cn2c(n1)O[C@@H](COc1ccc(OC3CCN(Cc4ccc(OCc5ccc(OC(F)(F)F)cc5)cc4)CC3)cc1)CC2` [Example 206, (R)-2-nitro-7-(4-{1-[4-(4-trifluoromethoxybenzyloxy)benzyl]piperidin-4-yloxy}phenoxymethyl)-6,7-dihydro-5H-imidazo[2,1-b][1,3]oxazine], the MIC was at most 1.5 ng/mL. Regarding `O=[N+]([O-])c1cn2c(n1)OC(COc1ccc3c(c1)CCCN3CCCOc1ccc(OC(F)(F)F)cc1)CC2` (centres unmarked) [Example 143, 6-(2-nitro-6,7-dihydro-5H-imidazo[2,1-b][1,3]oxazin-7-ylmethoxy)-1-[3-(4-trifluoromethoxyphenoxy)propyl]-1,2,3,4-tetrahydroquinoline], the MIC worked out at 100 ng/mL (≈ 182 nM). Turning to `O=[N+]([O-])c1cn2c(n1)O[C@H](COc1ccc(N3CCC(Cc4ccc(OCc5ccc(C(F)(F)F)cc5)cc4)CC3)cc1)CC2` [Example 254, (S)-2-nitro-7-(4-{4-[4-(4-trifluoromethylbenzyloxy)benzyl]piperidin-1-yl}phenoxymethyl)-6,7-dihydro-5H-imidazo[2,1-b][1,3]oxazine], the MIC turned out to be 0.8 ng/mL (≈ 1.28 nM). Take `O=[N+]([O-])c1cn2c(n1)O[C@@H](COc1ccc(N3CCC(Oc4ccc(SC(F)(F)F)cc4)CC3)cc1)CC2` [Example 446, (R)-2-nitro-7-{4-[4-(4-trifluoromethylsulfanylphenoxy)piperidin-1-yl]phenoxymethyl}-6,7-dihydro-5H-imidazo[2,1-b][1,3]oxazine]: the MIC turned out to be 3 ng/mL (≈ 5.45 nM).
